{"source": "patent US12729377B2", "about": "“RNAi agents and compositions for inhibiting expression of angiopoietin-like 3 (ANGPTL3), and methods of use” (Arrowhead Pharmaceuticals, Inc., priority 2017, dated 2026)", "key": {"ANGPTL3 protein": {"test_system": "ANGPTL3 protein", "test": "Example 10: serum ANGPTL3 protein by ELISA in mice", "type": "in vivo", "conditions": "0.5 mg/kg single SC injection day 1, female C57bl/6 mice, n=3, ratio to D5W control", "method": "(§1) To assess the in vivo activity of further ANGPTL3 RNAi agents that are designed to target position 304 on the ANGPTL3 gene, six- to eight-week-old female C57bl/6 mice were used. Pre-dose serum samples were taken at day −1 after a four hour fast. At day 1, each mouse was given a single subcutaneous administration of 200 μl containing 0.5 mg/kg (mpk) of an ANGPTL3 RNAi agent in D5W (dextrose in 5% water), or control (D5W) with no RNAi agent, according to the dosing groups recited in Table 47.\n(§2) Each of the RNAi agents included a modified sequence and an N-acetyl-galactosamine-containing targeting ligand conjugated to the 5′ terminal end of the sense strand. (See Tables 3, 4, and 5 for modified sequences and targeting ligand structures). As noted above, each of the ANGPTL3 RNAi agents dosed in this study included nucleotide sequences designed to target the ANGPTL3 gene at position 304. The injections were performed between the skin and muscle (i.e. subcutaneous injections) into the loose skin over the neck and shoulder area. Three (3) mice in each group were tested (n=3). Serum was collected on days 8, 15, 22, 29, and for some groups on day 36 (i.e., Groups 1, 2, and 9-13 only). Mice were fasted for four hours prior to each collection. ANGPTL3 protein levels in serum were measured by ELISA assay (R&D Systems), according to the manufacturer's recommendations. Triglycerides, total cholesterol, high-density lipoprotein (HDL), and low-density lipoprotein (LDL) in serum were measured on a Cobas® Integra 400 (Roche Diagnostics), according to the manufacturer's recommendations.\n(§3) The ANGPTL3 protein levels, triglyceride levels, total cholesterol levels, HDL levels, and LDL levels for each animal were normalized. For normalization, the level of ANGPTL3 protein, triglyceride, HDL, and total cholesterol, respectively, for each animal at a time point, was divided by the pre-treatment level of expression in that animal (in this case at day −1) to determine the ratio of expression “normalized to pre-treatment.” Expression at a specific time point was then normalized to the D5W control group by dividing the “normalized to pre-treatment” ratio for an individual animal by the mean “normalized to pretreatment” ratio of all mice in the D5W control group."}, "ANGPTL3 gene [1]": {"test_system": "ANGPTL3 gene", "test": "Example 10: serum triglycerides in mice", "type": "in vivo", "conditions": "0.5 mg/kg single SC injection day 1, female C57bl/6 mice, n=3, ratio to D5W control", "method": "as §1, §2, §3"}, "ANGPTL3 gene [2]": {"test_system": "ANGPTL3 gene", "test": "Example 10: serum total cholesterol in mice", "type": "in vivo", "conditions": "0.5 mg/kg single SC injection day 1, female C57bl/6 mice, n=3, ratio to D5W control", "method": "as §1, §2, §3"}, "ANGPTL3 gene [3]": {"test_system": "ANGPTL3 gene", "test": "Example 10: serum HDL in mice", "type": "in vivo", "conditions": "0.5 mg/kg single SC injection day 1, female C57bl/6 mice, n=3, ratio to D5W control", "method": "as §1, §2, §3"}, "ANGPTL3 gene [4]": {"test_system": "ANGPTL3 gene", "test": "Example 10: serum LDL in mice", "type": "in vivo, C57bl/6 mice", "conditions": "0.5 mg/kg sc", "method": "as §1, §2, §3"}}, "note": "In the oligonucleotide strings, read from the 5' end, every base follows the letter of its sugar. An asterisk marks phosphorothioate; unmarked linkages are phosphodiester. Other units and linkages are bracketed, terminal groups are in braces. A string of capitals states the bases alone. {NAG37} = N-acetyl-galactosamine tridentate targeting ligand (NAG37); [invAb] = inverted abasic unit; m = 2'-O-methyl; f = 2'-fluoro"}
{"substance": "AD05791: RNAi agent duplex: antisense AM07624-AS, sense AM07234-SS (antisense mU*fA*mCfUmGfAmUfCmAfAmAfUmAfUmGfUmUfGmA*fG*mC; sense {NAG37}*[invAb]*mGmCmUmCmAmAmCmAfUfAfUmUmUmGmAmUmCmAmGmUmA*[invAb])", "values": [{"measurement": "Average ANGPTL3 Protein Normalized to Pre-Treatment and Control", "setting": "ANGPTL3 protein; Day 8", "result": 0.145}, {"measurement": "Average ANGPTL3 Protein Normalized to Pre-Treatment and Control", "setting": "ANGPTL3 protein; Day 15", "result": 0.170}, {"measurement": "Average ANGPTL3 Protein Normalized to Pre-Treatment and Control", "setting": "ANGPTL3 protein; Day 22", "result": 0.214}, {"measurement": "Average ANGPTL3 Protein Normalized to Pre-Treatment and Control", "setting": "ANGPTL3 protein; Day 29", "result": 0.246}, {"measurement": "Average Triglycerides Normalized to Pre-Treatmen and Control", "setting": "ANGPTL3 gene [1]; Day 8", "result": 1.125}, {"measurement": "Average Triglycerides Normalized to Pre-Treatmen and Control", "setting": "ANGPTL3 gene [1]; Day 15", "result": 0.930}, {"measurement": "Average Triglycerides Normalized to Pre-Treatmen and Control", "setting": "ANGPTL3 gene [1]; Day 22", "result": 1.631}, {"measurement": "Average Triglycerides Normalized to Pre-Treatmen and Control", "setting": "ANGPTL3 gene [1]; Day 29", "result": 0.854}, {"measurement": "Average Total Cholesterol Normalized to Pre-Treatment and Control", "setting": "ANGPTL3 gene [2]; Day 8", "result": 0.664}, {"measurement": "Average Total Cholesterol Normalized to Pre-Treatment and Control", "setting": "ANGPTL3 gene [2]; Day 15", "result": 0.694}, {"measurement": "Average Total Cholesterol Normalized to Pre-Treatment and Control", "setting": "ANGPTL3 gene [2]; Day 22", "result": 0.631}, {"measurement": "Average Total Cholesterol Normalized to Pre-Treatment and Control", "setting": "ANGPTL3 gene [2]; Day 29", "result": 0.677}, {"measurement": "Average HDL Normalized to Pre-Treatment and Control", "setting": "ANGPTL3 gene [3]; Day 8", "result": 0.632}, {"measurement": "Average HDL Normalized to Pre-Treatment and Control", "setting": "ANGPTL3 gene [3]; Day 15", "result": 0.674}, {"measurement": "Average HDL Normalized to Pre-Treatment and Control", "setting": "ANGPTL3 gene [3]; Day 22", "result": 0.563}, {"measurement": "Average HDL Normalized to Pre-Treatment and Control", "setting": "ANGPTL3 gene [3]; Day 29", "result": 0.679}, {"measurement": "Avg LDL Normalized to Pre-Treatment and Control", "setting": "ANGPTL3 gene [4]; Day 8", "result": 0.878}, {"measurement": "Avg LDL Normalized to Pre-Treatment and Control", "setting": "ANGPTL3 gene [4]; Day 15", "result": 0.744}, {"measurement": "Avg LDL Normalized to Pre-Treatment and Control", "setting": "ANGPTL3 gene [4]; Day 22", "result": 0.848}, {"measurement": "Avg LDL Normalized to Pre-Treatment and Control", "setting": "ANGPTL3 gene [4]; Day 29", "result": 0.755}]}
